Reference: ChEMBL document CHEMBL4627246, “Pyroglutamide-Based P2X7 Receptor Antagonists Targeting Inflammatory Bowel Disease” (J Med Chem, 2020)

Each compound was assayed on CCRF-CEM (assay: Cytotoxicity against human CCRF-CEM cells assessed as effect on cell growth at 10 uM incubated for 48 hrs by sulforhodamine B assay). Conditions: not given.
Format: cell-based

Structure (SMILES)	Activity
COc1ccc(NC(=O)[C@@H]2CCC(=O)N2)cc1OC	Non-Toxic
O=C1N[C@H](C(=O)NCc2ccc(Cl)cc2Cl)C/C1=C\N1CCOCC1	Non-Toxic
CCCCCCN1C(=O)[C@@H]2C/C(=C\N(C)C)C(=O)N2C1N(C)C (stereo not given in full)	Non-Toxic
O=C(NCc1ccc(Cl)cc1Cl)[C@@H]1CCC(=O)N1c1ccccc1	Non-Toxic

Each compound was assayed on K562 (assay: Cytotoxicity against human K562 cells assessed as effect on cell growth at 10 uM incubated for 48 hrs by sulforhodamine B assay). Conditions: k562, 48 h.
Format: cell-based

Structure (SMILES)	Activity
COc1ccc(NC(=O)[C@@H]2CCC(=O)N2)cc1OC	Non-Toxic
O=C1N[C@H](C(=O)NCc2ccc(Cl)cc2Cl)C/C1=C\N1CCOCC1	Non-Toxic
CCCCCCN1C(=O)[C@@H]2C/C(=C\N(C)C)C(=O)N2C1N(C)C (stereo not given in full)	Non-Toxic
O=C(NCc1ccc(Cl)cc1Cl)[C@@H]1CCC(=O)N1c1ccccc1	Non-Toxic

The compounds below were run on HOP-62 (assay: Cytotoxicity against human HOP62 cells assessed as effect on cell growth at 10 uM incubated for 48 hrs by sulforhodamine B assay). Conditions: hop-62, 48 h.
Format: cell-based

Structure (SMILES)	Activity
COc1ccc(NC(=O)[C@@H]2CCC(=O)N2)cc1OC	Non-Toxic
O=C1N[C@H](C(=O)NCc2ccc(Cl)cc2Cl)C/C1=C\N1CCOCC1	Non-Toxic
CCCCCCN1C(=O)[C@@H]2C/C(=C\N(C)C)C(=O)N2C1N(C)C (stereo not given in full)	Non-Toxic
O=C(NCc1ccc(Cl)cc1Cl)[C@@H]1CCC(=O)N1c1ccccc1	Non-Toxic

These compounds were tested on NCI-H226 (assay: Cytotoxicity against human NCI-H226 cells assessed as effect on cell growth at 10 uM incubated for 48 hrs by sulforhodamine B assay). Conditions: nci-h226, 48 h.
Format: cell-based

Structure (SMILES)	Activity
COc1ccc(NC(=O)[C@@H]2CCC(=O)N2)cc1OC	Non-Toxic
O=C1N[C@H](C(=O)NCc2ccc(Cl)cc2Cl)C/C1=C\N1CCOCC1	Non-Toxic
CCCCCCN1C(=O)[C@@H]2C/C(=C\N(C)C)C(=O)N2C1N(C)C (stereo not given in full)	Non-Toxic
O=C(NCc1ccc(Cl)cc1Cl)[C@@H]1CCC(=O)N1c1ccccc1	Non-Toxic

What follows are compounds tested on SF-268 (assay: Cytotoxicity against human SF268 cells assessed as effect on cell growth at 10 uM incubated for 48 hrs by sulforhodamine B assay). Conditions: sf-268, 48 h.
Format: cell-based

Structure (SMILES)	Activity
COc1ccc(NC(=O)[C@@H]2CCC(=O)N2)cc1OC	Non-Toxic
O=C1N[C@H](C(=O)NCc2ccc(Cl)cc2Cl)C/C1=C\N1CCOCC1	Non-Toxic
CCCCCCN1C(=O)[C@@H]2C/C(=C\N(C)C)C(=O)N2C1N(C)C (stereo not given in full)	Non-Toxic
O=C(NCc1ccc(Cl)cc1Cl)[C@@H]1CCC(=O)N1c1ccccc1	Non-Toxic

What follows are compounds tested on LOX IMVI (assay: Cytotoxicity against human LOXIMVI cells assessed as effect on cell growth at 10 uM incubated for 48 hrs by sulforhodamine B assay). Conditions: not given.
Format: cell-based

Structure (SMILES)	Activity
COc1ccc(NC(=O)[C@@H]2CCC(=O)N2)cc1OC	Non-Toxic
O=C1N[C@H](C(=O)NCc2ccc(Cl)cc2Cl)C/C1=C\N1CCOCC1	Non-Toxic
CCCCCCN1C(=O)[C@@H]2C/C(=C\N(C)C)C(=O)N2C1N(C)C (stereo not given in full)	Non-Toxic
O=C(NCc1ccc(Cl)cc1Cl)[C@@H]1CCC(=O)N1c1ccccc1	Non-Toxic

The compounds below were run on MDA-MB-435 (assay: Cytotoxicity against human MDA-MB-435 cells assessed as effect on cell growth at 10 uM incubated for 48 hrs by sulforhodamine B assay). Conditions: mda-mb-435, 48 h.
Format: cell-based

Structure (SMILES)	Activity
COc1ccc(NC(=O)[C@@H]2CCC(=O)N2)cc1OC	Non-Toxic
O=C1N[C@H](C(=O)NCc2ccc(Cl)cc2Cl)C/C1=C\N1CCOCC1	Non-Toxic
CCCCCCN1C(=O)[C@@H]2C/C(=C\N(C)C)C(=O)N2C1N(C)C (stereo not given in full)	Non-Toxic
O=C(NCc1ccc(Cl)cc1Cl)[C@@H]1CCC(=O)N1c1ccccc1	Non-Toxic

These compounds were tested on SK-MEL-2 (assay: Cytotoxicity against human SK-MEL-2 cells assessed as effect on cell growth at 10 uM incubated for 48 hrs by sulforhodamine B assay). Conditions: sk-mel-2, 48 h.
Format: cell-based

Structure (SMILES)	Activity
COc1ccc(NC(=O)[C@@H]2CCC(=O)N2)cc1OC	Non-Toxic
O=C1N[C@H](C(=O)NCc2ccc(Cl)cc2Cl)C/C1=C\N1CCOCC1	Non-Toxic
CCCCCCN1C(=O)[C@@H]2C/C(=C\N(C)C)C(=O)N2C1N(C)C (stereo not given in full)	Non-Toxic
O=C(NCc1ccc(Cl)cc1Cl)[C@@H]1CCC(=O)N1c1ccccc1	Non-Toxic

What follows are compounds tested on SK-MEL-28 (assay: Cytotoxicity against human SK-MEL-28 cells assessed as effect on cell growth at 10 uM incubated for 48 hrs by sulforhodamine B assay). Conditions: sk-mel-28, 48 h.
Format: cell-based

Structure (SMILES)	Activity
COc1ccc(NC(=O)[C@@H]2CCC(=O)N2)cc1OC	Non-Toxic
O=C1N[C@H](C(=O)NCc2ccc(Cl)cc2Cl)C/C1=C\N1CCOCC1	Non-Toxic
CCCCCCN1C(=O)[C@@H]2C/C(=C\N(C)C)C(=O)N2C1N(C)C (stereo not given in full)	Non-Toxic
O=C(NCc1ccc(Cl)cc1Cl)[C@@H]1CCC(=O)N1c1ccccc1	Non-Toxic

Each compound was assayed on SK-MEL-5 (assay: Cytotoxicity against human SK-MEL-5 cells assessed as effect on cell growth at 10 uM incubated for 48 hrs by sulforhodamine B assay). Conditions: sk-mel-5, 48 h.
Format: cell-based

Structure (SMILES)	Activity
COc1ccc(NC(=O)[C@@H]2CCC(=O)N2)cc1OC	Non-Toxic
O=C1N[C@H](C(=O)NCc2ccc(Cl)cc2Cl)C/C1=C\N1CCOCC1	Non-Toxic
CCCCCCN1C(=O)[C@@H]2C/C(=C\N(C)C)C(=O)N2C1N(C)C (stereo not given in full)	Non-Toxic
O=C(NCc1ccc(Cl)cc1Cl)[C@@H]1CCC(=O)N1c1ccccc1	Non-Toxic

These compounds were tested on UACC-257 (assay: Cytotoxicity against human UACC257 cells assessed as effect on cell growth at 10 uM incubated for 48 hrs by sulforhodamine B assay). Conditions: uacc-257, 48 h.
Format: cell-based

Structure (SMILES)	Activity
COc1ccc(NC(=O)[C@@H]2CCC(=O)N2)cc1OC	Non-Toxic
O=C1N[C@H](C(=O)NCc2ccc(Cl)cc2Cl)C/C1=C\N1CCOCC1	Non-Toxic
CCCCCCN1C(=O)[C@@H]2C/C(=C\N(C)C)C(=O)N2C1N(C)C (stereo not given in full)	Non-Toxic
O=C(NCc1ccc(Cl)cc1Cl)[C@@H]1CCC(=O)N1c1ccccc1	Non-Toxic

What follows are compounds tested on OVCAR-3 (assay: Cytotoxicity against human OVCAR3 cells assessed as effect on cell growth at 10 uM incubated for 48 hrs by sulforhodamine B assay). Conditions: ovcar-3, 48 h.
Format: cell-based

Structure (SMILES)	Activity
COc1ccc(NC(=O)[C@@H]2CCC(=O)N2)cc1OC	Non-Toxic
O=C1N[C@H](C(=O)NCc2ccc(Cl)cc2Cl)C/C1=C\N1CCOCC1	Non-Toxic
CCCCCCN1C(=O)[C@@H]2C/C(=C\N(C)C)C(=O)N2C1N(C)C (stereo not given in full)	Non-Toxic
O=C(NCc1ccc(Cl)cc1Cl)[C@@H]1CCC(=O)N1c1ccccc1	Non-Toxic

The compounds below were run on OVCAR-4 (assay: Cytotoxicity against human OVCAR4 cells assessed as effect on cell growth at 10 uM incubated for 48 hrs by sulforhodamine B assay). Conditions: ovcar-4, 48 h.
Format: cell-based

Structure (SMILES)	Activity
COc1ccc(NC(=O)[C@@H]2CCC(=O)N2)cc1OC	Non-Toxic
O=C1N[C@H](C(=O)NCc2ccc(Cl)cc2Cl)C/C1=C\N1CCOCC1	Non-Toxic
CCCCCCN1C(=O)[C@@H]2C/C(=C\N(C)C)C(=O)N2C1N(C)C (stereo not given in full)	Non-Toxic
O=C(NCc1ccc(Cl)cc1Cl)[C@@H]1CCC(=O)N1c1ccccc1	Non-Toxic

Each compound was assayed on CAKI-1 (assay: Growth inhibition of human Caki1 cells assessed as growth percentage at 10 uM incubated for 48 hrs by sulforhodamine B assay). Conditions: caki-1, 48 h.
Format: cell-based

Structure (SMILES)	Activity
COc1ccc(NC(=O)[C@@H]2CCC(=O)N2)cc1OC	Non-Toxic
O=C1N[C@H](C(=O)NCc2ccc(Cl)cc2Cl)C/C1=C\N1CCOCC1	Non-Toxic
CCCCCCN1C(=O)[C@@H]2C/C(=C\N(C)C)C(=O)N2C1N(C)C (stereo not given in full)	Non-Toxic
O=C(NCc1ccc(Cl)cc1Cl)[C@@H]1CCC(=O)N1c1ccccc1	Non-Toxic

What follows are compounds tested on RXF 393 (assay: Cytotoxicity against human RXF393 cells assessed as effect on cell growth at 10 uM incubated for 48 hrs by sulforhodamine B assay). Conditions: rxf 393, 48 h.
Format: cell-based

Structure (SMILES)	Activity
COc1ccc(NC(=O)[C@@H]2CCC(=O)N2)cc1OC	Non-Toxic
O=C1N[C@H](C(=O)NCc2ccc(Cl)cc2Cl)C/C1=C\N1CCOCC1	Non-Toxic
CCCCCCN1C(=O)[C@@H]2C/C(=C\N(C)C)C(=O)N2C1N(C)C (stereo not given in full)	Non-Toxic
O=C(NCc1ccc(Cl)cc1Cl)[C@@H]1CCC(=O)N1c1ccccc1	Non-Toxic

What follows are compounds tested on SN12C (assay: Cytotoxicity against human SN12C cells assessed as effect on cell growth at 10 uM incubated for 48 hrs by sulforhodamine B assay). Conditions: not given.
Format: cell-based

Structure (SMILES)	Activity
COc1ccc(NC(=O)[C@@H]2CCC(=O)N2)cc1OC	Non-Toxic
O=C1N[C@H](C(=O)NCc2ccc(Cl)cc2Cl)C/C1=C\N1CCOCC1	Non-Toxic
CCCCCCN1C(=O)[C@@H]2C/C(=C\N(C)C)C(=O)N2C1N(C)C (stereo not given in full)	Non-Toxic
O=C(NCc1ccc(Cl)cc1Cl)[C@@H]1CCC(=O)N1c1ccccc1	Non-Toxic

What follows are compounds tested on MCF7 (assay: Cytotoxicity against human MCF7 cells assessed as effect on cell growth at 10 uM incubated for 48 hrs by sulforhodamine B assay). Conditions: mcf7, 48 h.
Format: cell-based

Structure (SMILES)	Activity
COc1ccc(NC(=O)[C@@H]2CCC(=O)N2)cc1OC	Non-Toxic
O=C1N[C@H](C(=O)NCc2ccc(Cl)cc2Cl)C/C1=C\N1CCOCC1	Non-Toxic
CCCCCCN1C(=O)[C@@H]2C/C(=C\N(C)C)C(=O)N2C1N(C)C (stereo not given in full)	Non-Toxic
O=C(NCc1ccc(Cl)cc1Cl)[C@@H]1CCC(=O)N1c1ccccc1	Non-Toxic

Each compound was assayed on MDA-MB-231 (assay: Cytotoxicity against human MDA-MB-231 cells assessed as effect on cell growth at 10 uM incubated for 48 hrs by sulforhodamine B assay). Conditions: mda-mb-231, 48 h.
Format: cell-based

Structure (SMILES)	Activity
COc1ccc(NC(=O)[C@@H]2CCC(=O)N2)cc1OC	Non-Toxic
O=C1N[C@H](C(=O)NCc2ccc(Cl)cc2Cl)C/C1=C\N1CCOCC1	Non-Toxic
CCCCCCN1C(=O)[C@@H]2C/C(=C\N(C)C)C(=O)N2C1N(C)C (stereo not given in full)	Non-Toxic
O=C(NCc1ccc(Cl)cc1Cl)[C@@H]1CCC(=O)N1c1ccccc1	Non-Toxic

These compounds were tested on Hs-578T (assay: Cytotoxicity against human Hs 578T cells assessed as effect on cell growth at 10 uM incubated for 48 hrs by sulforhodamine B assay). Conditions: not given.
Format: cell-based

Structure (SMILES)	Activity
COc1ccc(NC(=O)[C@@H]2CCC(=O)N2)cc1OC	Non-Toxic
O=C1N[C@H](C(=O)NCc2ccc(Cl)cc2Cl)C/C1=C\N1CCOCC1	Non-Toxic
CCCCCCN1C(=O)[C@@H]2C/C(=C\N(C)C)C(=O)N2C1N(C)C (stereo not given in full)	Non-Toxic
O=C(NCc1ccc(Cl)cc1Cl)[C@@H]1CCC(=O)N1c1ccccc1	Non-Toxic

Each compound was assayed on BT-549 (assay: Cytotoxicity against human BT549 cells assessed as effect on cell growth at 10 uM incubated for 48 hrs by sulforhodamine B assay). Conditions: bt-549, 48 h.
Format: cell-based

Structure (SMILES)	Activity
COc1ccc(NC(=O)[C@@H]2CCC(=O)N2)cc1OC	Non-Toxic
O=C1N[C@H](C(=O)NCc2ccc(Cl)cc2Cl)C/C1=C\N1CCOCC1	Non-Toxic
CCCCCCN1C(=O)[C@@H]2C/C(=C\N(C)C)C(=O)N2C1N(C)C (stereo not given in full)	Non-Toxic
O=C(NCc1ccc(Cl)cc1Cl)[C@@H]1CCC(=O)N1c1ccccc1	Non-Toxic
